Target: T1, DCAF1 WD40 domain (residues 1077-1390) (Homo sapiens, UniProt Q9Y4B6)
T1 construct: DCAF1 WD40 domain (residues 1077-1390)
Assay: DCAF1 binding assay by SPR (Biacore 8K+), DCAF1-3 KD
Conditions: 25 °C, read-out: DCAF1-3 SPR (KD)

T1 sequence (Q9Y4B6 1077-1390): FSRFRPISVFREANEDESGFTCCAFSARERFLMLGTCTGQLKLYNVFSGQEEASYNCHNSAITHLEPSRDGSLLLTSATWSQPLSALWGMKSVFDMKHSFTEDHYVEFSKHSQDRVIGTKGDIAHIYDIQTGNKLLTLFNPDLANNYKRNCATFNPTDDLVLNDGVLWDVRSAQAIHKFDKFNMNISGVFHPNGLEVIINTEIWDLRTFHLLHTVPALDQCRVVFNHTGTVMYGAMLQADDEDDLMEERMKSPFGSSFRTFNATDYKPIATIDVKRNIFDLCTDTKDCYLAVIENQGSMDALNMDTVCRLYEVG

`COC[C@@](CC(N)=O)(NC(=O)c1c[nH]nc1-c1ccccc1F)c1cccc(Cl)c1` [I-265] was tested, and the Kd was greater than 200 µM.

For `C=CC(=O)N1CCCC(c2[nH]ncc2C(=O)N[C@@H](CC(N)=O)c2cccc(Cl)c2)C1` (some centres unmarked) [I-542], the Kd was 100 to 200 µM.

In the case of `C[C@H](C(N)=O)[C@H](NC(=O)c1c[nH]nc1-c1ccccc1F)c1cccc(Cl)c1` [I-147], the Kd is reported as 10 to 100 µM.

With `C[C@@H](NC(=O)c1cn[nH]c1-c1c(F)cccc1F)c1ncc[nH]1` [I-839] the Kd was greater than 200 µM.

Work on `Cc1cccc(N2CCC[C@@H](Nc3cc(N4CCOCC4)ccn3)C2)c1` [I-510] yielded a Kd of 100 to 200 µM.

`CCN(c1nccc(N2CCOCC2)n1)[C@@H]1CCCN(c2cccc(F)c2)C1` [I-42] gave a Kd greater than 200 µM.

`Cc1sc2c(c1C)C(c1ccc(Cl)cc1)=N[C@@H](CC(=O)NCCOCCOCCOCCOCCOCC(=O)c1[nH]cc(C(=O)N[C@@H](CC(N)=O)c3cccc(Cl)c3)c1-c1ccccc1F)c1nnc(C)n1-2` [I-897] showed a Kd of less than 10 µM.

Work on `Fc1cccc(N2CCC[C@@H](Nc3cc(N4CCOCC4)ccn3)C2F)c1` (some centres unmarked) [I-260] yielded a Kd greater than 200 µM.

`c1ccc(N2CCC[C@@H](Nc3cc(N4CCOCC4)ccn3)C2)cc1` [I-75] showed a Kd of 10 to 100 µM.

In the case of `C=CC(=O)NC1CCCN(c2ccnc(N[C@@H]3CCCN(c4cccc(F)c4)C3)c2)C1` (some centres unmarked) [I-454], the Kd is reported as 100 to 200 µM.

`c1ccc2c(N3CCC[C@@H](Nc4cc(N5CCOCC5)ccn4)C3)noc2c1` [I-73] was tested, and the Kd was 100 to 200 µM.

`NC(=O)C[C@H](NC(=O)c1c[nH]nc1-c1cc(F)ccc1F)c1cccc(Cl)c1` [I-513] showed a Kd of less than 10 µM.

With `NC(=O)C[C@H](NC(=O)C1=C(c2c(F)cccc2F)CCNC1)c1cccc(Cl)c1` [I-550] the Kd was 100 to 200 µM.

Work on `Cc1c(F)ccc(F)c1-c1c(C(=O)N[C@@H](CC(N)=O)c2cccc(Cl)c2)c[nH]c1C(=O)c1cccc(C2CCCCC2)c1` [I-732] yielded a Kd of less than 10 µM.

With `Oc1c(CN2CCCCC2)cccc1[C@H]1CCCN(c2cccc(F)c2)C1` [I-731] the Kd was greater than 200 µM.

Compound `NC(=O)C[C@H](NC(=O)c1c[nH]nc1-c1ccccn1)c1cccc(Cl)c1` [I-335] has a Kd of 10 to 100 µM.

Compound `NC(=O)C[C@H](NC(=O)c1c[nH]c(-c2ccccc2)c1-c1ccccc1F)c1cccc(Cl)c1` [I-594] has a Kd of less than 10 µM.

`C=CC(=O)NCC1CCN(c2ccnc(N3CC[C@@H]4[C@H]3CCCN4c3cccc(F)c3)c2)CC1` [I-665] gave a Kd of 10 to 100 µM.

With `Fc1cccc(N2CCC[C@@H](Nc3cc(N4CCCCC4)ncn3)C2)c1` [I-379] the Kd was greater than 200 µM.

With `Oc1ccc(N2CCOCC2)cc1N[C@@H]1CCCN(c2cccc(F)c2)C1` [I-325] the Kd was greater than 200 µM.

`C=CC(=O)n1cc(-c2n[nH]cc2C(=O)N[C@@H](CC(N)=O)c2cccc(Cl)c2)cn1` [I-472] was tested, and the Kd was greater than 200 µM.

`Cc1sc2c(c1C)C(c1ccc(Cl)cc1)=N[C@@H](CC(=O)NCCOCCOCCOCCCc1ccc(C(=O)c3[nH]cc(C(=O)N[C@@H](CC(N)=O)c4cccc(Cl)c4)c3-c3c(F)ccc(F)c3C)cc1)c1nnc(C)n1-2` [I-908] gave a Kd of less than 10 µM.

In the case of `Cc1c(F)ccc(F)c1-c1c(C(=O)N[C@@H](CC(=O)N2CCNCC2)c2cccc(Cl)c2)c[nH]c1C#N` [I-876], the Kd is reported as less than 10 µM.

`NC(=O)C[C@H](NC(=O)c1cn[nH]c1-c1c(F)ccc(F)c1C(F)(F)F)c1cccc(Cl)c1` [I-793] showed a Kd of less than 10 µM.

`Fc1cccc(N2CCC[C@@H](Sc3cc(N4CCOCC4)ccn3)C2)c1` [I-113] showed a Kd greater than 200 µM.

Work on `C=CC(=O)N1CCCC(c2[nH]ncc2C(=O)N[C@@H](CC(N)=O)c2cccc(Cl)c2)C1` (some centres unmarked) [I-469] yielded a Kd greater than 200 µM.

With `Fc1cccc(N2CCC[C@@H](Nc3cc(N4CC5CCCC5C4)ccn3)C2)c1` (some centres unmarked) [I-575] the Kd was less than 10 µM.

Compound `NC(=O)C[C@H](NC(=O)c1c[nH]nc1-c1cccc2nc[nH]c12)c1cccc(Cl)c1` [I-239] has a Kd greater than 200 µM.

Compound `NC(=O)C[C@@]1(NC(=O)c2c[nH]nc2-c2ccccc2F)CCCc2ccc(Cl)cc21` [I-243] has a Kd greater than 200 µM.

`COCCc1[nH]cc(C(=O)N[C@@H](CC(N)=O)c2cccc(Cl)c2)c1-c1ccccc1F` [I-362] was tested, and the Kd was greater than 200 µM.

With `Cc1sc(N2CCC[C@@H](Nc3cc(N4CCOCC4)ccn3)C2)nc1-c1ccccc1` [I-411] the Kd was greater than 200 µM.

Compound `Cc1c(N2CCOCC2)ccnc1N[C@@H]1CCCN(c2cccc(F)c2)C1` [I-516] has a Kd of 10 to 100 µM.

Compound `Cc1cccc(F)c1-c1[nH]ncc1C(=O)N[C@@H](CC(N)=O)c1cccc(Cl)c1` [I-149] has a Kd of less than 10 µM.

With `COCCn1ncc(C(=O)N[C@@H](CC(N)=O)c2cccc(Cl)c2)c1-c1ccccc1F` [I-88] the Kd was greater than 200 µM.

Work on `Fc1cccc(N2CC[C@@H]3CCCc4cnc(N5CCOCC5)cc4N[C@H]3C2)c1` [I-363] yielded a Kd greater than 200 µM.

`NC(=O)C[C@H](NC(=O)c1cn[nH]c1-c1ccccc1F)c1cnsc1` [I-187] gave a Kd greater than 200 µM.

`O=C1C[C@@H]([C@H](NC(=O)c2c[nH]nc2-c2ccccc2F)c2cccc(Cl)c2)CN1` [I-223] was tested, and the Kd was greater than 200 µM.

Compound `NC(=O)[C@@H]1CCN(C(=O)c2c[nH]nc2-c2ccccc2F)[C@@H]1c1cccc(Cl)c1` [I-204] has a Kd greater than 200 µM.

`NC(=O)C[C@H](NC(=O)c1[nH]nc(NC2CCCCC2)c1-c1ccccc1F)c1cccc(Cl)c1` [I-171] showed a Kd greater than 200 µM.

Compound `Fc1cccc(N2CCC[C@@H](n3ccc4c(N5CCOCC5)ncnc43)C2)c1` [I-59] has a Kd of 100 to 200 µM.

`O=C1Nc2cnc(N3CCCCC3)cc2NC12CCCN(c1cccc(F)c1)C2` (centres unmarked) [I-992] gave a Kd of 10 to 100 µM.

Reference: patent US20260373266A1, “PROTEIN DEGRADERS AND USES THEREOF” (KYMERA THERAPEUTICS, INC., priority 2022, published 2026)
